From PubChem BioAssay AID1918994 (Molecular Pharmacology Branch, DTP, NCI, 2023)

Tested on: 292921-168-R-J2-PDC complex spheroid growth
Experiment: Anticancer human tumor 292921-168-R-J2-PDC patient-derived pancreatic carcinoma cell line growth inhibition [AhR]
Settings: second compound 0.1 µM; first compound 0.316 µM; active compounds read low
How it was run: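 Agents were dosed in half-log steps down from roughly clinical Cmax, or from 10 microM where Cmax was unknown, alone and with AhR antagonists. Read-out: percent test/control growth of tumor spheroids containing HUVEC and MSC stromal cells.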
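Note: spheroids exposed to compounds for seven days after three days of growth.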

Structure (SMILES)	viability, T/C
O=C(C=Cc1cccc(S(=O)(=O)Nc2ccccc2)c1)NO + Cc1ccccc1N=Nc1ccc(NC(=O)c2ccnn2C)c(C)c1	52%
O=C(c1cc(Cc2n[nH]c(=O)c3ccccc23)ccc1F)N1CCN(C(=O)C2CC2)CC1 + Cc1ccccc1N=Nc1ccc(NC(=O)c2ccnn2C)c(C)c1	92.9%

Same assay, conditions: second compound 0.1 µM; first compound 1 µM; active compounds read low

Structure (SMILES)	viability, T/C
COc1cc(Nc2ncc3c(n2)-c2ccc(Cl)cc2C(c2c(F)cccc2OC)=NC3)ccc1C(=O)O + Cc1ccccc1N=Nc1ccc(NC(=O)c2ccnn2C)c(C)c1	45.1%
Nc1ccccc1NC(=O)c1ccc(CNC(=O)OCc2cccnc2)cc1 + Cc1ccccc1N=Nc1ccc(NC(=O)c2ccnn2C)c(C)c1	40.9%
O=C(C=Cc1cccc(S(=O)(=O)Nc2ccccc2)c1)NO + Cc1ccccc1N=Nc1ccc(NC(=O)c2ccnn2C)c(C)c1	39.7%
O=C(c1cc(Cc2n[nH]c(=O)c3ccccc23)ccc1F)N1CCN(C(=O)C2CC2)CC1 + Cc1ccccc1N=Nc1ccc(NC(=O)c2ccnn2C)c(C)c1	95.8%

Same assay, conditions: second compound 0.1 µM; first compound 3.16 µM; active compounds read low

Structure (SMILES)	viability, T/C
COc1cc(Nc2ncc3c(n2)-c2ccc(Cl)cc2C(c2c(F)cccc2OC)=NC3)ccc1C(=O)O + Cc1ccccc1N=Nc1ccc(NC(=O)c2ccnn2C)c(C)c1	39.8%
Nc1ccccc1NC(=O)c1ccc(CNC(=O)OCc2cccnc2)cc1 + Cc1ccccc1N=Nc1ccc(NC(=O)c2ccnn2C)c(C)c1	27.3%
O=C(C=Cc1cccc(S(=O)(=O)Nc2ccccc2)c1)NO + Cc1ccccc1N=Nc1ccc(NC(=O)c2ccnn2C)c(C)c1	38.2%
O=C(c1cc(Cc2n[nH]c(=O)c3ccccc23)ccc1F)N1CCN(C(=O)C2CC2)CC1 + Cc1ccccc1N=Nc1ccc(NC(=O)c2ccnn2C)c(C)c1	89.6%

Same assay, conditions: second compound 0.1 µM; first compound 10 µM; active compounds read low

Structure (SMILES)	viability, T/C
COc1cc(Nc2ncc3c(n2)-c2ccc(Cl)cc2C(c2c(F)cccc2OC)=NC3)ccc1C(=O)O + Cc1ccccc1N=Nc1ccc(NC(=O)c2ccnn2C)c(C)c1	29.1%
Nc1ccccc1NC(=O)c1ccc(CNC(=O)OCc2cccnc2)cc1 + Cc1ccccc1N=Nc1ccc(NC(=O)c2ccnn2C)c(C)c1	12%
O=C(C=Cc1cccc(S(=O)(=O)Nc2ccccc2)c1)NO + Cc1ccccc1N=Nc1ccc(NC(=O)c2ccnn2C)c(C)c1	3.35%
O=C(c1cc(Cc2n[nH]c(=O)c3ccccc23)ccc1F)N1CCN(C(=O)C2CC2)CC1 + Cc1ccccc1N=Nc1ccc(NC(=O)c2ccnn2C)c(C)c1	75.5%

Same assay, conditions: second compound 0.316 µM; first compound 0.000949 µM; active compounds read low

Structure (SMILES)	viability, T/C
CC(C)CC(NC(=O)C(Cc1ccccc1)NC(=O)c1cnccn1)B(O)O (stereo not drawn) + Cc1ccccc1N=Nc1ccc(NC(=O)c2ccnn2C)c(C)c1	82%
CCc1c2c(nc3ccc(O)cc13)-c1cc3c(c(=O)n1C2)COC(=O)[C@]3(O)CC + Cc1ccccc1N=Nc1ccc(NC(=O)c2ccnn2C)c(C)c1	68.3%

Same assay, conditions: second compound 0.316 µM; first compound 0.003 µM; active compounds read low

Structure (SMILES)	viability, T/C
CC(C)CC(NC(=O)C(Cc1ccccc1)NC(=O)c1cnccn1)B(O)O (stereo not drawn) + Cc1ccccc1N=Nc1ccc(NC(=O)c2ccnn2C)c(C)c1	102%
CCc1c2c(nc3ccc(O)cc13)-c1cc3c(c(=O)n1C2)COC(=O)[C@]3(O)CC + Cc1ccccc1N=Nc1ccc(NC(=O)c2ccnn2C)c(C)c1	55.9%

Same assay, conditions: second compound 0.316 µM; first compound 0.00949 µM; active compounds read low

Structure (SMILES)	viability, T/C
CC(C)CC(NC(=O)C(Cc1ccccc1)NC(=O)c1cnccn1)B(O)O (stereo not drawn) + Cc1ccccc1N=Nc1ccc(NC(=O)c2ccnn2C)c(C)c1	23.9%
CCc1c2c(nc3ccc(O)cc13)-c1cc3c(c(=O)n1C2)COC(=O)[C@]3(O)CC + Cc1ccccc1N=Nc1ccc(NC(=O)c2ccnn2C)c(C)c1	17.3%

Same assay, conditions: second compound 0.316 µM; first compound 0.03 µM; active compounds read low

Structure (SMILES)	viability, T/C
CC(C)CC(NC(=O)C(Cc1ccccc1)NC(=O)c1cnccn1)B(O)O (stereo not drawn) + Cc1ccccc1N=Nc1ccc(NC(=O)c2ccnn2C)c(C)c1	1.24%
CCc1c2c(nc3ccc(O)cc13)-c1cc3c(c(=O)n1C2)COC(=O)[C@]3(O)CC + Cc1ccccc1N=Nc1ccc(NC(=O)c2ccnn2C)c(C)c1	8.17%

Same assay, conditions: second compound 0.316 µM; first compound 0.0316 µM; active compounds read low

Structure (SMILES)	viability, T/C
COc1cc(Nc2ncc3c(n2)-c2ccc(Cl)cc2C(c2c(F)cccc2OC)=NC3)ccc1C(=O)O + Cc1ccccc1N=Nc1ccc(NC(=O)c2ccnn2C)c(C)c1	42.2%
Nc1ccccc1NC(=O)c1ccc(CNC(=O)OCc2cccnc2)cc1 + Cc1ccccc1N=Nc1ccc(NC(=O)c2ccnn2C)c(C)c1	66.8%
O=C(C=Cc1cccc(S(=O)(=O)Nc2ccccc2)c1)NO + Cc1ccccc1N=Nc1ccc(NC(=O)c2ccnn2C)c(C)c1	74.9%
O=C(c1cc(Cc2n[nH]c(=O)c3ccccc23)ccc1F)N1CCN(C(=O)C2CC2)CC1 + Cc1ccccc1N=Nc1ccc(NC(=O)c2ccnn2C)c(C)c1	79.4%

Same assay, conditions: second compound 0.316 µM; first compound 0.0949 µM; active compounds read low

Structure (SMILES)	viability, T/C
CC(C)CC(NC(=O)C(Cc1ccccc1)NC(=O)c1cnccn1)B(O)O (stereo not drawn) + Cc1ccccc1N=Nc1ccc(NC(=O)c2ccnn2C)c(C)c1	3.16%
CCc1c2c(nc3ccc(O)cc13)-c1cc3c(c(=O)n1C2)COC(=O)[C@]3(O)CC + Cc1ccccc1N=Nc1ccc(NC(=O)c2ccnn2C)c(C)c1	3.89%

Same assay, conditions: second compound 0.316 µM; first compound 0.1 µM; active compounds read low

Structure (SMILES)	viability, T/C
COc1cc(Nc2ncc3c(n2)-c2ccc(Cl)cc2C(c2c(F)cccc2OC)=NC3)ccc1C(=O)O + Cc1ccccc1N=Nc1ccc(NC(=O)c2ccnn2C)c(C)c1	42.6%
Nc1ccccc1NC(=O)c1ccc(CNC(=O)OCc2cccnc2)cc1 + Cc1ccccc1N=Nc1ccc(NC(=O)c2ccnn2C)c(C)c1	65.8%
O=C(C=Cc1cccc(S(=O)(=O)Nc2ccccc2)c1)NO + Cc1ccccc1N=Nc1ccc(NC(=O)c2ccnn2C)c(C)c1	68.2%
O=C(c1cc(Cc2n[nH]c(=O)c3ccccc23)ccc1F)N1CCN(C(=O)C2CC2)CC1 + Cc1ccccc1N=Nc1ccc(NC(=O)c2ccnn2C)c(C)c1	90%

Same assay, conditions: second compound 0.316 µM; first compound 0.3 µM; active compounds read low

Structure (SMILES)	viability, T/C
CC(C)CC(NC(=O)C(Cc1ccccc1)NC(=O)c1cnccn1)B(O)O (stereo not drawn) + Cc1ccccc1N=Nc1ccc(NC(=O)c2ccnn2C)c(C)c1	0.68%
CCc1c2c(nc3ccc(O)cc13)-c1cc3c(c(=O)n1C2)COC(=O)[C@]3(O)CC + Cc1ccccc1N=Nc1ccc(NC(=O)c2ccnn2C)c(C)c1	3.58%

Same assay, conditions: second compound 0.316 µM; first compound 0.316 µM; active compounds read low

Structure (SMILES)	viability, T/C
COc1cc(Nc2ncc3c(n2)-c2ccc(Cl)cc2C(c2c(F)cccc2OC)=NC3)ccc1C(=O)O + Cc1ccccc1N=Nc1ccc(NC(=O)c2ccnn2C)c(C)c1	43%
Nc1ccccc1NC(=O)c1ccc(CNC(=O)OCc2cccnc2)cc1 + Cc1ccccc1N=Nc1ccc(NC(=O)c2ccnn2C)c(C)c1	58.9%
O=C(C=Cc1cccc(S(=O)(=O)Nc2ccccc2)c1)NO + Cc1ccccc1N=Nc1ccc(NC(=O)c2ccnn2C)c(C)c1	55.4%
O=C(c1cc(Cc2n[nH]c(=O)c3ccccc23)ccc1F)N1CCN(C(=O)C2CC2)CC1 + Cc1ccccc1N=Nc1ccc(NC(=O)c2ccnn2C)c(C)c1	86.8%

Same assay, conditions: second compound 0.316 µM; first compound 1 µM; active compounds read low

Structure (SMILES)	viability, T/C
COc1cc(Nc2ncc3c(n2)-c2ccc(Cl)cc2C(c2c(F)cccc2OC)=NC3)ccc1C(=O)O + Cc1ccccc1N=Nc1ccc(NC(=O)c2ccnn2C)c(C)c1	41%
Nc1ccccc1NC(=O)c1ccc(CNC(=O)OCc2cccnc2)cc1 + Cc1ccccc1N=Nc1ccc(NC(=O)c2ccnn2C)c(C)c1	42.8%
O=C(C=Cc1cccc(S(=O)(=O)Nc2ccccc2)c1)NO + Cc1ccccc1N=Nc1ccc(NC(=O)c2ccnn2C)c(C)c1	43.2%
O=C(c1cc(Cc2n[nH]c(=O)c3ccccc23)ccc1F)N1CCN(C(=O)C2CC2)CC1 + Cc1ccccc1N=Nc1ccc(NC(=O)c2ccnn2C)c(C)c1	85.8%

Same assay, conditions: second compound 0.316 µM; first compound 3.16 µM; active compounds read low

Structure (SMILES)	viability, T/C
COc1cc(Nc2ncc3c(n2)-c2ccc(Cl)cc2C(c2c(F)cccc2OC)=NC3)ccc1C(=O)O + Cc1ccccc1N=Nc1ccc(NC(=O)c2ccnn2C)c(C)c1	36.8%
Nc1ccccc1NC(=O)c1ccc(CNC(=O)OCc2cccnc2)cc1 + Cc1ccccc1N=Nc1ccc(NC(=O)c2ccnn2C)c(C)c1	26.1%
O=C(C=Cc1cccc(S(=O)(=O)Nc2ccccc2)c1)NO + Cc1ccccc1N=Nc1ccc(NC(=O)c2ccnn2C)c(C)c1	36.9%
O=C(c1cc(Cc2n[nH]c(=O)c3ccccc23)ccc1F)N1CCN(C(=O)C2CC2)CC1 + Cc1ccccc1N=Nc1ccc(NC(=O)c2ccnn2C)c(C)c1	84.5%

Same assay, conditions: second compound 0.316 µM; first compound 10 µM; active compounds read low

Structure (SMILES)	viability, T/C
COc1cc(Nc2ncc3c(n2)-c2ccc(Cl)cc2C(c2c(F)cccc2OC)=NC3)ccc1C(=O)O + Cc1ccccc1N=Nc1ccc(NC(=O)c2ccnn2C)c(C)c1	30.3%
Nc1ccccc1NC(=O)c1ccc(CNC(=O)OCc2cccnc2)cc1 + Cc1ccccc1N=Nc1ccc(NC(=O)c2ccnn2C)c(C)c1	12.8%
O=C(C=Cc1cccc(S(=O)(=O)Nc2ccccc2)c1)NO + Cc1ccccc1N=Nc1ccc(NC(=O)c2ccnn2C)c(C)c1	6.05%
O=C(c1cc(Cc2n[nH]c(=O)c3ccccc23)ccc1F)N1CCN(C(=O)C2CC2)CC1 + Cc1ccccc1N=Nc1ccc(NC(=O)c2ccnn2C)c(C)c1	65.7%

Same assay, conditions: second compound 1 µM; first compound 0.000949 µM; active compounds read low

Structure (SMILES)	viability, T/C
CC(C)CC(NC(=O)C(Cc1ccccc1)NC(=O)c1cnccn1)B(O)O (stereo not drawn) + Cc1ccccc1N=Nc1ccc(NC(=O)c2ccnn2C)c(C)c1	82.3%
CCc1c2c(nc3ccc(O)cc13)-c1cc3c(c(=O)n1C2)COC(=O)[C@]3(O)CC + Cc1ccccc1N=Nc1ccc(NC(=O)c2ccnn2C)c(C)c1	68.6%

Same assay, conditions: second compound 1 µM; first compound 0.003 µM; active compounds read low

Structure (SMILES)	viability, T/C
CC(C)CC(NC(=O)C(Cc1ccccc1)NC(=O)c1cnccn1)B(O)O (stereo not drawn) + Cc1ccccc1N=Nc1ccc(NC(=O)c2ccnn2C)c(C)c1	94.3%
